# Test results published in patent US9457015B2, “2-aminothiazole derivative and anti-cancer composition comprising same as active ingredient” (Chung-Ang University Industry-Academic Cooperation …, priority 2012, dated 2016).
# Tests used:
# [1] = tested on: prostate cancer cell line, PC3; experiment: Cytotoxicity by MTT analysis, PC3; format: cell-based; conditions: PC3 prostate cancer cells
# Procedure: The prostate cancer cell line, PC3 was obtained from Korean Cell Line Bank. After adding Rosewell Park Memorial Institute (RPMI) 1640 cell culture medium (LM001-01, WelGEN) containing 10% fetal bovine serum (FBS), 100 units/mL of penicillin and 100 μg/mL of streptomycin to a 100 Φ dish, cells were inoculated on the dish and cultured in a CO2 incubator (VS-9000C, vision) in 5% CO2/95% humidified air atmosphere at 37° C.
# Toxicity to cells was analyzed using 3-[4,5-dimethylthiazol-2-yl]-2,5-diphenyl-tetra zolium bromide (MTT) analysis. As cancer cells to be measured, 8.0×10^3 cells/mL was aliquoted on a 96-well culture dish and then the cells were cultured for 24 hours. The next day, the synthesized compound was dissolved in a medium according to each concentration, and diluted in a medium according to each concentration. […] After the addition, the cells were cultured in an incubator in 5% CO2 at 37° C., and then survival capability of cells was measured at 24 hours and 48 hours after the culture. […] The solution was added to the 96-well culture dish, and then absorbance was measured at 540 nm. Relative absorbance was calculated using absorbance according to concentration of drugs divided by absorbance of a control group (drug-untreated group).
# [2] = tested on: ovarian cancer cells (SK-OV-3); experiment: Cytotoxicity by MTT analysis, SK-OV-3; format: cell-based; conditions: Homo sapiens, SK-OV-3, MTT analysis, read-out: IC50 (nM) SK-OV3 Ovarian cancer
# Procedure: (§1) Toxicity to cells was analyzed using 3-[4,5-dimethylthiazol-2-yl]-2,5-diphenyl-tetra zolium bromide (MTT) analysis. As cancer cells to be measured, 8.0×10^3 cells/mL was aliquoted on a 96-well culture dish and then the cells were cultured for 24 hours. The next day, the synthesized compound was dissolved in a medium according to each concentration, and diluted in a medium according to each concentration. The medium in which the compound was dissolved according to each concentration was added to a culture dish at […], dimethyl sulfoxide (DMSO) was added to a control well so as to have the same volume as the added compound. After the addition, the cells were cultured in an incubator in 5% CO2 at 37° C., and then survival capability of cells was measured at 24 hours and 48 hours after the culture. After the medium was removed, the cells were washed twice using PBS, then 200 μL of a solution containing 1 mg/mL of MTT (Sigma-Aldrich Chemical Co., USA) was added thereto, and then the cells were further cultured for 3 hours in a CO2 incubator at 37° C. The 96-well culture dish was centrifuged for 10 minutes at 2000 rpm to remove the MTT solution. […] The solution was added to the 96-well culture dish, and then absorbance was measured at 540 nm. Relative absorbance was calculated using absorbance according to concentration of drugs divided by absorbance of a control group (drug-untreated group).
# [3] = tested on: skin cancer cells (SK-MEL2); experiment: Cytotoxicity by MTT analysis, SK-MEL2; format: cell-based
# Procedure: as §1
# [4] = tested on: colorectal cancer cells (HCT15); experiment: Cytotoxicity by MTT analysis, HCT15; format: cell-based
# Procedure: as §1
# [5] = tested on: breast cancer cells (MCF7); experiment: Cytotoxicity by MTT analysis, MCF7; format: cell-based; conditions: Homo sapiens
# Procedure: as §1
# [6] = tested on: lung cancer cells (A549); experiment: Cytotoxicity by MTT analysis, A549; format: cell-based
# Procedure: as §1
# [7] = tested on: prostate cancer cell line, PC3, transplanted; experiment: Anti-cancer effect in vivo in mice with transplanted PC3 tumors; conditions: 2 mg/kg/day i.v. for four consecutive days, compared 7 days after stoppage
# Procedure: The anti-cancer activity of the compound according to the present invention, HF-154 was measured in in-vivo using mice in which a prostate cancer cell line, PC3, was transplanted. An experimental group included a group of two mice to which an excipient (vehicle) was administered and a group of four mice to which the compound according to the present invention, HF-154, was administered. The compound according to the present invention, HF-154, was administered to each mouse in an amount of 2 mg/kg/day (100 μL i.v.). First, after administration for four consecutive days, administration was stopped, and tumor growth was compared at 7 days after the stoppage.
structure (smiles),measurement,setting,value
"O=C(CCc1ccco1)Nc1ncc(-c2ccc(F)cc2)s1 [HF-154, N-(5-(4-fluorophenyl)thiazol-2-yl)-3-(furan-2-yl)propanamide]",IC50,[1],~0.1 nM
same,IC50,[2],~0.5 nM
same,IC50,[3],~5 nM
same,IC50,"[4]; Homo sapiens, HCT-15, MTT analysis",1 to 5 nM
same,IC50,[4]; MTT analysis,~1 nM
same,IC50,[5],~0.3 nM
same,IC50,[6],~3 nM
same,size of the tumor compared to the excipient administration group,[7],significantly reduced
